# Test results published in patent EP3807270B1, “NOVEL HETEROARYL HETEROCYCLYL COMPOUNDS FOR THE TREATMENT OF AUTOIMMUNE DISEASE” (F. Hoffmann-La Roche AG, priority 2018, dated 2019).
# Target: T1, human TLR8 (Homo sapiens, UniProt Q9NR97)
# T1 construct: host or cells: HEK293 (HEK-Blue)
# T1 sequence (Q9NR97 27-1041): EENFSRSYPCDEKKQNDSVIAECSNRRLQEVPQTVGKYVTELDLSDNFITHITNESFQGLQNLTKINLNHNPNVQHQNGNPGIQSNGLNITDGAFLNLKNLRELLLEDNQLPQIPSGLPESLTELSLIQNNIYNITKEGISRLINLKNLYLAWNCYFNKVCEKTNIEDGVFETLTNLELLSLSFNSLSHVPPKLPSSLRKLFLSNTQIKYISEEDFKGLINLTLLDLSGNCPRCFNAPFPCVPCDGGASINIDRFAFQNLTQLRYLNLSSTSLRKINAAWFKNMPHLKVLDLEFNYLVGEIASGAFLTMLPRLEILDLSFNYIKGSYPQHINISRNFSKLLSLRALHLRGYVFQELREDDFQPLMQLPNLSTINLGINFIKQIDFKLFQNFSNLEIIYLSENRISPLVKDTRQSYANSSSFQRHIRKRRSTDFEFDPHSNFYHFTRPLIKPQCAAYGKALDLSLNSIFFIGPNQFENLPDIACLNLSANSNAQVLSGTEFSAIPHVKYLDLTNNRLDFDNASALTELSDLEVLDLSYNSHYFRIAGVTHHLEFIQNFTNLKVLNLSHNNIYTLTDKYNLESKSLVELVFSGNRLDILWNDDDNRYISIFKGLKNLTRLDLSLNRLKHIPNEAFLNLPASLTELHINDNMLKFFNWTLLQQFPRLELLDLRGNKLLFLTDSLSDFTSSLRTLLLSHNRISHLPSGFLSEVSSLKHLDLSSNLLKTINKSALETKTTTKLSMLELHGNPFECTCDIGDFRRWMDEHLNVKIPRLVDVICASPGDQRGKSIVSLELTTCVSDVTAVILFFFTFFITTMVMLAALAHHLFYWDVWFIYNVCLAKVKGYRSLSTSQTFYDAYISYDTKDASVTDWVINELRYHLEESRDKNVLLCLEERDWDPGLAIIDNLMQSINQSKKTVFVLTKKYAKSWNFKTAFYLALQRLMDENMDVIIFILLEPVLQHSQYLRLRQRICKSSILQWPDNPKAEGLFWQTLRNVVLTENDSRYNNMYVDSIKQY
# Experiment: HEK293-Blue-hTLR-8 cells assay (SEAP reporter, R848 stimulation)
# Format: cell-based
# Conditions: HEK293-Blue-hTLR8 cells, R848, 20 hrs; read-out: HEK/hTLR8 IC50
# Procedure, shortened: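 HEK293-Blue-hTLR8 cells (NF-κB/AP-1-driven SEAP) in DMEM/10% FBS were treated with serially diluted compound (1% DMSO final) plus R848 for 20 hrs at 37 °C. Supernatant SEAP was measured with QUANTI-Blue after 2 hrs at 37 °C, absorbance 620-655 nm; antagonism seen as reduced reporter.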
row,IC50 [nM],Structure (SMILES)
1,< 3,"C[C@@H]1CN(c2ccc(C#N)c3ncccc23)C[C@H](CN2CC3(C2)CN(c2cnc4c(n2)CCNC4)CCO3)O1 [Example 50, 5-[(2R,6S)-2-methyl-6-[[8-(5,6,7,8-tetrahydropyrido[3,4-b]pyrazin-2-yl)-5-oxa-2,8-diazaspiro [3.5]nonan-2-yl]methyl]morpholin-4-yl] quinoline-8-carbonitrile]"
2,6,"C[C@@H]1CN(c2ccc(C#N)c3ncccc23)C[C@H](CN2CCN(c3ccc4c(n3)CN[C@@H]4C)CC2)O1 (single isomer, unassigned) [Example 64]"
3,3,"C[C@@H]1CN(c2ccc(C#N)c3ncccc23)C[C@H](CN2CCN(c3ccc4c(n3)CN[C@H]4C)CC2)O1 (single isomer, unassigned) [Example 63]"
4,8,"C[C@@H]1CN(c2ccc(C#N)c3ncccc23)C[C@H](CN2CC3(C2)CN(c2cc4c(cn2)CCNC4)CCO3)O1 [Example 48, 5-[(2R,6S)-2-methyl-6-[[8-(5,6,7,8-tetrahydro-2,6-naphthyridin-3-yl)-5-oxa-2,8-diazaspiro[3.5]nonan-2-yl]methyl]morpholin-4-yl]quinoline-8-carbonitrile]"
5,342,"C[C@@H]1CN(c2ccc(C#N)c3ncccc23)C[C@H](CN2CCN(c3ccc(Cl)cc3)CC2)O1 [Example R2, 5-[(2S,6R)-2-[[4-(4-chlorophenyl)piperazin-1-yl]methyl]-6-methyl-morpholin-4-yl]quinoline-8-carbonitrile, reference compound]"
6,2,"C[C@@H]1Cc2cc(N3CCN(C[C@H]4CN(c5ccc(C#N)c6nccnc56)C[C@@H](C)O4)CC3)ncc2CN1 (single isomer, unassigned) [Example 83]"
7,5,"C[C@@H]1CN(c2ccc(C#N)c3ncccc23)C[C@H](CN2CCN(c3cc4c(cn3)[C@H](C)NCC4)CC2)O1 (single isomer, unassigned) [Example 72]"
8,14,"Cc1nc2c(nc1N1CCN(C[C@H]3CN(c4ccc(C#N)c5ncccc45)C[C@@H](C)O3)CC1)CCNC2 [Example 60, 5-[(2R,6S)-2-methyl-6-[[4-(3-methyl-5,6,7,8-tetrahydropyrido[3,4-b]pyrazin-2-yl)piperazin-1-yl]methyl]morpholin-4-yl]quinoline-8-carbonitrile]"
9,4,"C[C@@H]1CN(c2ccc(C#N)c3ncccc23)C[C@H](CN2CCN(c3cc4c(cn3)CN[C@@H](C)C4)CC2)O1 (single isomer, unassigned) [Example 71]"
10,3,"C[C@@H]1CN(c2ccc(C#N)c3nccnc23)C[C@H](CN2CCN(c3cc4c(cn3)C[C@H](C)NC4)CC2)O1 (single isomer, unassigned) [Example 81]"
11,< 3,"C[C@@H]1CN(c2ccc(C#N)c3ncccc23)C[C@H](CN2CC3(C2)CN(c2ccc4c(n2)CCNC4)CCO3)O1 [Example 49, 5-[(2R,6S)-2-methyl-6-[[8-(5,6,7,8-tetrahydro-1,6-naphthyridin-2-yl)-5-oxa-2,8-diazaspiro[3.5]nonan-2-yl]methyl]morpholin-4-yl]quinoline-8-carbonitrile]"
12,7,"C[C@@H]1CN(c2ccc(C#N)c3ncccc23)C[C@H](CN2CCN(c3cc4c(cn3)[C@@H](C)NCC4)CC2)O1 (single isomer, unassigned) [Example 73]"
13,4,"C[C@@H]1Cc2cc(N3CCN(C[C@H]4CN(c5ccc(C#N)c6ncccc56)C[C@@H](C)O4)CC3)ncc2CN1 (single isomer, unassigned) [Example 70]"

# Further lines, the molecule ahead of its results:
row,Structure (SMILES),IC50 [nM]
1,"CC1NCc2cc(N3CCN(C[C@H]4CN(c5ccc(C#N)c6ncccc56)C[C@@H](C)O4)CC3)ccc21 (stereo partly drawn) [Example 28, 5-[(2R,6S)-2-methyl-6-[[4-(1-methylisoindolin-5-yl)piperazin-1-yl]methyl]morpholin-4-yl]quinoline-8-carbonitrile]",13
2,"C[C@@H]1CN(c2ccc(C#N)c3ncccc23)C[C@H](CN2CCN(c3ccc4c(n3)CCNC4)CC2)O1 [Example 14, 5-[(2R,6S)-2-methyl-6-[[4-(5,6,7,8-tetrahydro-1,6-naphthyridin-2-yl)piperazin-1-yl]methyl]morpholin-4-yl]quinoline-8-carbonitrile]",4
3,"C[C@@H]1CN(c2ccc(C#N)c3nccnc23)C[C@H](CN2CCN(c3cnc4c(c3)CNC4)CC2)O1 [Example 25, 8-[(2S,6R)-2-[[4-(6,7-dihydro-5H-pyrrolo[3,4-b]pyridin-3-yl)piperazin-1-yl]methyl]-6-methyl-morpholin-4-yl] quinoxaline-5-carbonitrile]",17
4,"C[C@@H]1CN(c2ccc(C#N)c3ncccc23)C[C@H](CN2CCN(c3ccc4c(c3)CNC4)CC2)O1 [Example 7, 5-[(2S,6R)-2-[(4-isoindolin-5-ylpiperazin-1-yl)methyl]-6-methyl-morpholin-4-yl] quinoline-8-carbonitrile]",30
5,"C[C@@H]1CN(c2ccc(C#N)c3ncccc23)C[C@H](CNC2CN(c3cnc4c(c3)CNC4)C2)O1 [Example 43, 5-[(2S,6R)-2-[[[1-(6,7-dihydro-5H-pyrrolo[3,4-b]pyridin-3-yl)azetidin-3-yl]amino]methyl]-6-methyl-morpholin-4-yl]quinoline-8-carbonitrile]",54
6,"C[C@@H]1CN(c2ccc(C#N)c3ncccc23)C[C@H](CN2CCN(c3cnc4c(c3)CCNC4)CC2)O1 [Example 23, 5-[(2R,6S)-2-methyl-6-[[4-(5,6,7,8-tetrahydro-1,7-naphthyridin-3-yl)piperazin-1-yl]methyl]morpholin-4-yl]quinoline-8-carbonitrile]",11
7,"C[C@@H]1CN(c2ccc(C#N)c3ncccc23)C[C@H](CN2CCN(c3ccc4c(n3)CCN(C)C4)CC2)O1 [Example 34, 5-[(2R,6S)-2-methyl-6-[[4-(6-methyl-7,8-dihydro-5H-1,6-naphthyridin-2-yl)piperazin-1-yl]methyl]morpholin-4-yl]quinoline-8-carbonitrile]",6
8,"C[C@@H]1CN(c2ccc(C#N)c3ncccc23)C[C@H](CN2CCN(c3cnc4c(n3)CNCC4)CC2)O1 [Example 40, 5-[(2R,6S)-2-methyl-6-[[4-(5,6,7,8-tetrahydropyrido[3,4-b]pyrazin-3-yl)piperazin-1-yl]methyl]morpholin-4-yl]quinoline-8-carbonitrile]",4
